According to the supplement of paper PMC6045584:
± gives the standard deviation of the averaged measurements.

How the values were obtained:
TIOGUANINE [1] = compound: T1, Nc1nc2[nH]cnc2c(=S)[nH]1 [TIOGUANINE]; assay: area under dose-response curve of surviving fraction (unscaled, Aref=0) (surviving fraction x log10(nM)); higher = more resistant; details: exposure time: 5 days; dose range 0.5-1000 nM
Outline: (§1)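 Inhibitor was applied to tumour cell lines at eight concentrations (0.5 to 1000 nM) for five days in 384-well plates. Luminescence from CellTiter-Glo, scaled to DMSO-only wells, gave surviving fractions in three screens per line, and these were fitted by 3-parameter logistic regression with the drc R package. The area under the curve is an unscaled activity area. Aref was 0, and dose was on a log10 scale.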

MDV3100 [2] = compound: T2, CNC(=O)c1ccc(N2C(=S)N(c3ccc(C#N)c(C(F)(F)F)c3)C(=O)C2(C)C)cc1F [MDV3100]; assay: as above; details: exposure time: 5 days; dose range 0.5-1000 nM
Outline: as §1

SNX-5422 [3] = compound: T3, CC1(C)CC(=O)c2c(C(F)(F)F)nn(-c3ccc(C(N)=O)c(N[C@H]4CC[C@H](OC(=O)CN)CC4)c3)c2C1 [SNX-5422]; assay: as above; details: exposure time: 5 days; dose range 0.5-1000 nM
Outline: as §1

CANERTINIB [4] = compound: T4, C=CC(=O)Nc1cc2c(Nc3ccc(F)c(Cl)c3)ncnc2cc1OCCCN1CCOCC1 [CANERTINIB]; assay: as above; details: exposure time: 5 days; dose range 0.5-1000 nM
Outline: as §1

AFATINIB [5] = compound: T5, CN(C)C/C=C/C(=O)Nc1cc2c(Nc3ccc(F)c(Cl)c3)ncnc2cc1O[C@H]1CCOC1 [AFATINIB]; assay: as above; details: exposure time: 5 days; dose range 0.5-1000 nM
Outline: as §1

SAPACITABINE [6] = compound: T6, CCCCCCCCCCCCCCCC(=O)Nc1ccn([C@@H]2O[C@H](CO)[C@@H](O)[C@@H]2C#N)c(=O)n1 [SAPACITABINE]; assay: as above; details: exposure time: 5 days; dose range 0.5-1000 nM
Outline: as §1

[7] = compound: Cn1cc(C2=Nc3cc(NC(=O)C(N)C4CCCCC4)cc4c3C2=CNNC4=O)cn1; assay: as above; details: exposure time: 5 days; dose range 0.5-1000 nM
Outline: as §1

BI-2536 [8] = compound: T7, CC[C@@H]1C(=O)N(C)c2cnc(Nc3ccc(C(=O)NC4CCN(C)CC4)cc3OC)nc2N1C1CCCC1 [BI-2536]; assay: as above; details: exposure time: 5 days; dose range 0.5-1000 nM
Outline: as §1

TIOGUANINE [9] = compound: T1, TIOGUANINE; assay: surviving fraction relative to DMSO-only wells; higher = less growth inhibition; details: exposure time: 5 days
Outline: (§2)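 Tumour cell lines were grown to log phase and seeded at 250–500 cells per well in 384-well plates. They were exposed continuously to inhibitors at 0.5, 1, 5, 10, 50, 100, 500 and 1000 nM for five days, beginning 24 hours after seeding. Surviving fraction is CellTiter-Glo luminescence normalised to the median of DMSO-only wells.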

MDV3100 [10] = compound: T2, MDV3100; assay: as above; details: exposure time: 5 days
Outline: as §2

SNX-5422 [11] = compound: T3, SNX-5422; assay: as above; details: exposure time: 5 days
Outline: as §2

CANERTINIB [12] = compound: T4, CANERTINIB; assay: as above; details: exposure time: 5 days
Outline: as §2

AFATINIB [13] = compound: T5, AFATINIB; assay: as above; details: exposure time: 5 days
Outline: as §2

SAPACITABINE [14] = compound: T6, SAPACITABINE; assay: as above; details: exposure time: 5 days
Outline: as §2

[15] = compound: Cn1cc(C2=Nc3cc(NC(=O)C(N)C4CCCCC4)cc4c3C2=CNNC4=O)cn1; assay: as above; details: exposure time: 5 days
Outline: as §2

BI-2536 [16] = compound: T7, BI-2536; assay: as above; details: exposure time: 5 days
Outline: as §2

HCC38 BREAST
area under dose-response curve (TIOGUANINE [1]): 3.75
area under dose-response curve (MDV3100 [2]): 4.04
area under dose-response curve (SNX-5422 [3]): 1.97
area under dose-response curve (CANERTINIB [4]): 3.55
area under dose-response curve (AFATINIB [5]): 3.94
area under dose-response curve (SAPACITABINE [6]): 2.32
area under dose-response curve [7]: 1.69
area under dose-response curve (BI-2536 [8]): 1.35
surviving fraction (TIOGUANINE [9]; 0.5 nM): 1.15 ± 0.31
surviving fraction (TIOGUANINE [9]; 1 nM): 1.3 ± 0.38
surviving fraction (TIOGUANINE [9]; 5 nM): 1.15 ± 0.29
surviving fraction (TIOGUANINE [9]; 10 nM): 1.28 ± 0.099
surviving fraction (TIOGUANINE [9]; 50 nM): 1.1 ± 0.24
surviving fraction (TIOGUANINE [9]; 100 nM): 1.08 ± 0.062
surviving fraction (TIOGUANINE [9]; 500 nM): 1.08 ± 0.32
surviving fraction (TIOGUANINE [9]; 1000 nM): 0.95 ± 0.15
surviving fraction (MDV3100 [10]; 0.5 nM): 1.02 ± 0.14
surviving fraction (MDV3100 [10]; 1 nM): 1.27 ± 0.2
surviving fraction (MDV3100 [10]; 5 nM): 1.28 ± 0.038
surviving fraction (MDV3100 [10]; 10 nM): 1.1 ± 0.066
surviving fraction (MDV3100 [10]; 50 nM): 1.25 ± 0.027
surviving fraction (MDV3100 [10]; 100 nM): 1.35 ± 0.11
surviving fraction (MDV3100 [10]; 500 nM): 1.28 ± 0.038
surviving fraction (MDV3100 [10]; 1000 nM): 1.13 ± 0.19
surviving fraction (SNX-5422 [11]; 0.5 nM): 1.19 ± 0.18
surviving fraction (SNX-5422 [11]; 1 nM): 1.09 ± 0.094
surviving fraction (SNX-5422 [11]; 5 nM): 1.06 ± 0.19
surviving fraction (SNX-5422 [11]; 10 nM): 1.01 ± 0.15
surviving fraction (SNX-5422 [11]; 50 nM): 0.219 ± 0.053
surviving fraction (SNX-5422 [11]; 100 nM): 0.26 ± 0.027
surviving fraction (SNX-5422 [11]; 500 nM): 0.0927 ± 0.0074
surviving fraction (SNX-5422 [11]; 1000 nM): 0.0897 ± 0.017
surviving fraction (CANERTINIB [12]; 0.5 nM): 1.01 ± 0.11
surviving fraction (CANERTINIB [12]; 1 nM): 1.07 ± 0.18
surviving fraction (CANERTINIB [12]; 5 nM): 1.08 ± 0.24
surviving fraction (CANERTINIB [12]; 10 nM): 1.05 ± 0.082
surviving fraction (CANERTINIB [12]; 50 nM): 1.19 ± 0.17
surviving fraction (CANERTINIB [12]; 100 nM): 1.18 ± 0.12
surviving fraction (CANERTINIB [12]; 500 nM): 0.948 ± 0.1
surviving fraction (CANERTINIB [12]; 1000 nM): 0.864 ± 0.16
surviving fraction (AFATINIB [13]; 0.5 nM): 1.37 ± 0.28
surviving fraction (AFATINIB [13]; 1 nM): 1.23 ± 0.18
surviving fraction (AFATINIB [13]; 5 nM): 1.27 ± 0.074
surviving fraction (AFATINIB [13]; 10 nM): 1.26 ± 0.044
surviving fraction (AFATINIB [13]; 50 nM): 1.2 ± 0.2
surviving fraction (AFATINIB [13]; 100 nM): 1.17 ± 0.17
surviving fraction (AFATINIB [13]; 500 nM): 1 ± 0.18
surviving fraction (AFATINIB [13]; 1000 nM): 0.749 ± 0.098
surviving fraction (SAPACITABINE [14]; 0.5 nM): 0.958 ± 0.075
surviving fraction (SAPACITABINE [14]; 1 nM): 0.931 ± 0.092
surviving fraction (SAPACITABINE [14]; 5 nM): 1.02 ± 0.21
surviving fraction (SAPACITABINE [14]; 10 nM): 0.801 ± 0.02
surviving fraction (SAPACITABINE [14]; 50 nM): 0.594 ± 0.17
surviving fraction (SAPACITABINE [14]; 100 nM): 0.525 ± 0.04
surviving fraction (SAPACITABINE [14]; 500 nM): 0.414 ± 0.086
surviving fraction (SAPACITABINE [14]; 1000 nM): 0.274 ± 0.088
surviving fraction ([15]; 0.5 nM): 1 ± 0.33
surviving fraction ([15]; 1 nM): 1.06 ± 0.23
surviving fraction ([15]; 5 nM): 0.978 ± 0.3
surviving fraction ([15]; 10 nM): 0.92 ± 0.11
surviving fraction ([15]; 50 nM): 0.114 ± 0.036
surviving fraction ([15]; 100 nM): 0.031 ± 0.0079
surviving fraction ([15]; 500 nM): 0.027 ± 0.0027
surviving fraction ([15]; 1000 nM): 0.021 ± 0.0017
surviving fraction (BI-2536 [16]; 0.5 nM): 1.08 ± 0.078
surviving fraction (BI-2536 [16]; 1 nM): 1.15 ± 0.18
surviving fraction (BI-2536 [16]; 5 nM): 0.289 ± 0.021
surviving fraction (BI-2536 [16]; 10 nM): 0.247 ± 0.038
surviving fraction (BI-2536 [16]; 50 nM): 0.219 ± 0.025
surviving fraction (BI-2536 [16]; 100 nM): 0.254 ± 0.017
surviving fraction (BI-2536 [16]; 500 nM): 0.191 ± 0.019
surviving fraction (BI-2536 [16]; 1000 nM): 0.115 ± 0.024
